Experimental data: PubChem BioAssay (NCI)
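Tested at 5 concentrations; 48 h exposure; 96-well plates; endpoints linearly interpolated, else capped at highest concentration. GI50 = concentration required for 50% inhibition of growth. The concentration for full growth arrest is given as TGI.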

Legend:
Test in all cases: growth of human tumour cells (NCI), 48 h
[1] = system: 786-0 renal
[2] = system: A498 renal
[3] = system: A549 NSCLC
[4] = system: ACHN renal
[5] = system: BT-549 breast
[6] = system: CAKI-1 renal
[7] = system: CCRF-CEM leukemia
[8] = system: COLO 205 colon
[9] = system: DU-145 prostate
[10] = system: EKVX NSCLC
[11] = system: HCC-2998 colon
[12] = system: HCT-116 colon
[13] = system: HCT-15 colon
[14] = system: HL-60(TB) leukemia
[15] = system: HOP-62 NSCLC
[16] = system: HOP-92 NSCLC
[17] = system: HS 578T breast
[18] = system: HT29 colon
[19] = system: IGROV1 ovarian
[20] = system: K-562 leukemia
[21] = system: KM12 colon
[22] = system: LOX IMVI melanoma
[23] = system: M14 melanoma
[24] = system: MALME-3M melanoma
[25] = system: MCF7 breast
[26] = system: MDA-MB-231 breast
[27] = system: MDA-MB-435
[28] = system: MDA-MB-468 breast
[29] = system: MOLT-4 leukemia
[30] = system: NCI-H226 lung
[31] = system: NCI-H23 lung
[32] = system: NCI-H460 lung
[33] = system: NCI-H522 lung
[34] = system: NCI/ADR-RES ovarian
[35] = system: OVCAR-3 ovarian
[36] = system: OVCAR-4 ovarian
[37] = system: OVCAR-5 ovarian
[38] = system: OVCAR-8 ovarian
[39] = system: PC-3 prostate
[40] = system: RPMI-8226 leukemia
[41] = system: RXF 393 renal
[42] = system: SF-268 CNS
[43] = system: SF-295 CNS
[44] = system: SF-539 CNS
[45] = system: SK-MEL-2 melanoma
[46] = system: SK-MEL-28 melanoma
[47] = system: SK-MEL-5 melanoma
[48] = system: SK-OV-3 ovarian
[49] = system: SN12C renal
[50] = system: SNB-19 CNS
[51] = system: SNB-75 CNS
[52] = system: SR leukemia
[53] = system: SW-620 colon
[54] = system: T-47D breast
[55] = system: TK-10 renal
[56] = system: U251 CNS
[57] = system: UACC-257 melanoma
[58] = system: UACC-62 melanoma
[59] = system: UO-31 renal

NS(=O)(=O)c1ccc(N=Nc2c(O)n(CC(=O)Nc3ccccc3Cl)c3ccccc23)cc1
GI50 [1]: 3.26 µM
TGI [1]: 12 µM
GI50 [2]: 3.64 µM
TGI [2]: 16 µM
GI50 [3]: 2910 nM
TGI [3]: 10.3 µM
GI50 [4]: 2210 nM
TGI [4]: 6.89 µM
GI50 [5]: 2260 nM
TGI [5]: 6.79 µM
GI50 [6]: 1890 nM
TGI [6]: 8.37 µM
GI50 [7]: 3.58 µM
TGI [7]: 23.2 µM
GI50 [8]: 2050 nM
TGI [8]: 4.14 µM
GI50 [9]: 5.34 µM
TGI [9]: 23.1 µM
GI50 [10]: 4.09 µM
TGI [10]: 36.1 µM
GI50 [11]: 2380 nM
TGI [11]: 6.35 µM
GI50 [12]: 2940 nM
TGI [12]: 12.4 µM
GI50 [13]: 3 µM
TGI [13]: 15.4 µM
GI50 [14]: 2380 nM
TGI [14]: 7.68 µM
GI50 [15]: 2750 nM
TGI [15]: 12.7 µM
GI50 [16]: 2150 nM
TGI [16]: 6.45 µM
GI50 [17]: 3.23 µM
TGI [17]: > 100 µM
GI50 [18]: 2040 nM
TGI [18]: 4.11 µM
GI50 [19]: 4.59 µM
TGI [19]: 19.1 µM
GI50 [20]: 3.66 µM
TGI [20]: > 100 µM
GI50 [21]: 2930 nM
TGI [21]: 12 µM
GI50 [22]: 3.28 µM
TGI [22]: 15.1 µM
GI50 [23]: 3.33 µM
TGI [23]: 30.5 µM
GI50 [24]: 1890 nM
TGI [24]: 6.91 µM
GI50 [25]: 1940 nM
TGI [25]: 4.63 µM
GI50 [26]: 3.34 µM
TGI [26]: 16 µM
GI50 [27]: 2610 nM
TGI [27]: 19.4 µM
GI50 [28]: 1810 nM
TGI [28]: 3.8 µM
GI50 [29]: 3.19 µM
TGI [29]: 31.8 µM
GI50 [30]: 2500 nM
TGI [30]: 8.45 µM
GI50 [31]: 3.19 µM
TGI [31]: 12.2 µM
GI50 [32]: 3.1 µM
TGI [32]: 10.8 µM
GI50 [33]: 2780 nM
TGI [33]: 15.3 µM
GI50 [34]: 3.93 µM
TGI [34]: 50.3 µM
GI50 [35]: 2560 nM
TGI [35]: 11.5 µM
GI50 [36]: 4.57 µM
TGI [36]: 55.5 µM
GI50 [37]: 4.3 µM
TGI [37]: 22.7 µM
GI50 [38]: 2490 nM
TGI [38]: 6.85 µM
GI50 [39]: 2760 nM
TGI [39]: 29.2 µM
GI50 [40]: 3.06 µM
TGI [40]: > 100 µM
GI50 [41]: 2140 nM
TGI [41]: 5.74 µM
GI50 [42]: 3.19 µM
TGI [42]: 21.9 µM
GI50 [43]: 1670 nM
TGI [43]: 3.58 µM
GI50 [44]: 1700 nM
TGI [44]: 4.17 µM
GI50 [45]: 3.95 µM
TGI [45]: 21.1 µM
GI50 [46]: 2960 nM
TGI [46]: 12.5 µM
GI50 [47]: 2120 nM
TGI [47]: 5.11 µM
GI50 [48]: 2540 nM
TGI [48]: 8.74 µM
GI50 [49]: 3.03 µM
TGI [49]: 16.1 µM
GI50 [50]: 4.74 µM
TGI [50]: 24.7 µM
GI50 [51]: 2010 nM
TGI [51]: 14.4 µM
GI50 [52]: 2820 nM
TGI [52]: > 100 µM
GI50 [53]: 2930 nM
TGI [53]: 10.9 µM
GI50 [54]: 2950 nM
TGI [54]: 34.5 µM
GI50 [55]: 10.8 µM
TGI [55]: 34.5 µM
GI50 [56]: 2810 nM
TGI [56]: 9.62 µM
GI50 [57]: 2890 nM
TGI [57]: 9.83 µM
GI50 [58]: 1810 nM
TGI [58]: 5.88 µM
GI50 [59]: 1720 nM
TGI [59]: 6.81 µM
